Entries after “also recorded” stand apart in the source; their conditions may differ.
Legend:
[1] = tested on: SOCE in THP-1 human monocytes; assay: SOCE Fura-2 bioassay in THP-1 cells; conditions: for IC50: Homo sapiens, THP-1, read-out: IC50 SOCE, purified cannabinoids
[2] = tested on: UUO mice; assay: Unilateral Ureteral Obstruction (UUO) mouse model of kidney fibrosis; assay type: in vivo; conditions: for interstitial area increase in UUO kidneys: FIG. 19D; for macrophage infiltration in UUO kidneys (F4/80): FIG. 20B; for α-SMA production in UUO kidneys vs vehicle (immunostaining): FIG. 24B; for urine / water intake / body weight / kidney weight CLK / kidney weight UUO: UUO mice at day 7; for urine / water intake / kidney weight CLK / kidney weight UUO: 10 mg/kg i.p. daily; for body weight: 10 mg/kg i.p. daily day 0 to day 6, n = 5; for magnesium output in urine vs vehicle: 24 h urine, FIG. 18; for kidney weight CLK: contralateral kidney; for phosphorylated Smad3 protein in UUO kidneys (Western blotting) / α-SMA protein in UUO kidneys (Western blotting): cortical kidney tissue, FIG. 23; for collagen type I production in UUO kidneys vs vehicle / fibronectin production in UUO kidneys vs vehicle: immunostaining; for collagen type I production in UUO kidneys vs vehicle: FIG. 21B; for fibronectin production in UUO kidneys vs vehicle: FIG. 22B; for tubular dilation in UUO kidneys: number of dilated tubules per field, FIG. 19B; for kidney weight UUO: obstructed kidney; for tubule loss in UUO kidneys: total number of renal tubules per field, FIG. 19C
Excerpt: The Unilateral Ureteral Obstruction (UUO) model is a mouse model of kidney disease that is associated with and characterized by progressive tubulointerstitial injury and fibrosis. This model can be used to identify many of the molecular and cellular events that occur in progressive kidney fibrosis. […] TRPM7 represents a promising therapeutic target in kidney fibrosis and TRPM7 inhibitors may act as anti-fibrotic pharmacological tools.
C57BL/6 male mice (6 wks weighing 20-25 g) were used in the UUO model. Under isoflurane (3.0% for induction and 1.5% for maintenance) anesthesia, ureteral obstruction was achieved by ligating the left ureter with a 3-0 silk suture through a left lateral incision. Control and experimental groups for these experiments were created as follows:
Group 1: Control (5 mL/kg body weight) 5% ethanol and 5% Tween80 in 0.9% NaCl
Group 2: CBGA (10 mg/kg body weight) 2 mg/mL in 5% ethanol, 5% Tween80 and 0.9% NaCl
Group 3: CBD (10 mg/kg body weight) 2 mg/mL in 5% ethanol, 5% Tween80 and 0.9% NaCl
Group 4: CBGA (10 mg/kg body weight)+CBD (10 mg/kg body weight), 2 mg/mL each in 5% ethanol, 5% Tween80 and 0.9% NaCl
Mice were injected once daily with 10 mg/kg cannabinoids (CBGA, CBD, or both) as well as vehicle control daily beginning immediately after surgery and until Day 6. Mice were euthanized at Day 7 after surgery. Obstructed kidneys (UUO) and non-obstructed contralateral kidneys (CLK) were collected and stored.
FIGS. 19A-19D depict the protection of kidney structure following cannabinoid treatment, as observed during experiments.
Immunohistochemical analysis. To evaluate renal fibrosis in UUO kidneys, immunoreactivities of F4/80 (macrophage marker), collagen type I, fibronectin, and α-smooth muscle actin (α-SMA) were determined using a standard biotin-streptavidin-peroxidase method. The staining-positive areas were calculated by Image J. The threshold was set to automatically compute the positive areas for each staining and the ratio of the positive areas to the whole interstitial area. Number of macrophages (FIG. 20A and FIG. 20B), collagen type I production in stained kidney tissue (FIG. 21A and FIG. 21B), and fibronectin production in stained kidney tissue (FIG. 22A and FIG. 22B) were quantified in UUO kidneys, showing that extracellular matrix production and/or deposition in kidney tissue were also affected with CBGA treatment.

[3] = tested on: SOCE in U937 human monocytes; assay: SOCE Fura-2 bioassay in U937 cells; conditions: Homo sapiens, U-937, read-out: IC50 SOCE, purified cannabinoids, U937; Table 5
Experimental: Briefly, SOCE inhibition experiments were performed as described in Example 8, using each of the hemp extracts listed below and in Tables 6A and 6B at six concentrations each in each of the five cell types listed above to obtain dose response curves, as shown in FIGS. 11A-11SS. […] All data are averages of three independent runs±SEM. […] Hemp extracts used in FIGS. 11A-11SS are: Sour Space Candy (SSC), Hawaiian Haze (HH), Special Sauce (SS), Suver Haze (SH), White CBG (WCBG), Elektra (ELEK), Cherry Wine (CW), Lifter (LIF), Grape Soda (GS).

[4] = tested on: SOCE in HEK-293 human embryonic kidney cells; assay: SOCE Fura-2 bioassay in HEK293 cells; assay type: cell-based; conditions: for IC50: Homo sapiens, HEK293, read-out: IC50 SOCE, purified cannabinoids, HEK-293, Table 5

SMILES	IC50 [1]	interstitial area increase in UUO kidneys [2]	macrophage infiltration in UUO kidneys (F4/80) [2]	α-SMA production in UUO kidneys vs vehicle (immunostaining) [2]	urine [2]	water intake [2]	body weight [2]	magnesium output in urine vs vehicle ([2]; UUO mice day 7)	kidney weight CLK [2]	phosphorylated Smad3 protein in UUO kidneys (Western blotting) [2]	α-SMA protein in UUO kidneys (Western blotting) [2]	collagen type I production in UUO kidneys vs vehicle [2]	fibronectin production in UUO kidneys vs vehicle [2]	tubular dilation in UUO kidneys [2]	kidney weight UUO [2]	tubule loss in UUO kidneys [2]	IC50 [3]	IC50 [4]	also measured
CCCCCc1cc(O)c(C/C=C(\C)CCC=C(C)C)c(O)c1C(=O)O [CBGA, (E)-3-(3,7-dimethylocta-2,6-dien-1-yl)-2,4-dihydroxy-6-pentylbenzoic acid]	2210 nM	inhibited increases in interstitial area	inhibited macrophage infiltration	inhibited	1.88 ± 0.17 mL	4.7 ± 0.2 mL	21.55 ± 0.60 g	recovered	167 ± 0.7 mg	suppressed	suppressed	inhibited	inhibited	inhibited tubular dilation	163 ± 0.9^ mg	inhibited tubule loss	2230 nM	3.6 µM	kidney atrophy / loss of UUO kidney weight vs vehicle ([2]; UUO mice day 7, 10 mg/kg daily, FIG. 17B, 10 mg/kg): less kidney atrophy; also recorded: ameliorated the loss of kidney weight; recovery of body weight loss vs vehicle ([2]; UUO mice, 10 mg/kg daily, FIG. 16): faster recovery of body weight loss; inhibitory effect in immune cells compared with non-immune HEK293 cells ([4]; 10 μM, HEK293 (FIG. 8) vs immune cells): more potent
C=C(C)[C@@H]1CCC(C)=C[C@H]1c1c(O)cc(CCCCC)cc1O [CBD, (1′R,2′R)-5′-methyl-4-penlyl-2′-(prop-1-en-2-yl)-1′,2′,3′,4′-tetrahydro-[1,1′-biphenyl]-2,6-diol]	> 50000 nM	inhibited interstitial area increase	strongly inhibited macrophage infiltration	inhibited	2.01 ± 0.44 mL	4.9 ± 0.4 mL	22.08 ± 0.45 g	recovered	175 ± 0.7 mg	suppressed	suppressed	inhibit	inhibit	inhibited tubular dilation	172 ± 0.8^ mg	inhibited tubule loss	> 50000 nM	> 50 µM	combinatory effect when paired with 2.2 μM CBGA ([1]; THP-1, 10 μM cannabinoid + 2.2 μM CBGA, FIG. 10Z): sub-additive

— patent US20230091336A1, “CANNABINOID COMPOSITIONS” (priority 2020, published 2023)
